Assay results taken from BindingDB's records for doi:10.1021/jm7013887 (Abbott Laboratories, 2008).

Legend:
[1] = biological target: T1, Diacylglycerol O-acyltransferase 1 (Homo sapiens, UniProt O75907); test: In Vitro FlashPlate Assay; settings: pH 7.5; 22 °C
T1 sequence (O75907 whole entry): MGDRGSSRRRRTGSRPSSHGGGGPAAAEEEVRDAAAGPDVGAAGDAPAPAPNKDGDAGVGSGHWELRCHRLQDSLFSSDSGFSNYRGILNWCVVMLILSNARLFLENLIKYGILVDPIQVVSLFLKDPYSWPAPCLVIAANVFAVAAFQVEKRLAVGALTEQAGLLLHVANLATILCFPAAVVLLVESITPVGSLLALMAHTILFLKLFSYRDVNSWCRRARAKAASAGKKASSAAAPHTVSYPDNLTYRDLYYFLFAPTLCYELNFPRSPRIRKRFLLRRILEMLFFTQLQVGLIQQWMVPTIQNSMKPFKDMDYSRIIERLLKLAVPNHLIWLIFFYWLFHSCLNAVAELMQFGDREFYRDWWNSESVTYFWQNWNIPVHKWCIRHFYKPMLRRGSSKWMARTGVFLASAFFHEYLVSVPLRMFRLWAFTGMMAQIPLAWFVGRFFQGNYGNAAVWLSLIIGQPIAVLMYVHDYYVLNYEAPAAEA
Method: (§1) DGAT-1 activity was characterized by catalyzing the transfer of the radiolabeled decanoyl group onto the syn-3 position of didecanoyl glycerol. The resultant radiolabeled tridecanoyl glycerol (tricaprin) preferentially binds to the hydrophobic coating on the phospholipid FlashPlate, and radioactivity was measured in the TopCount Plate Reader. Various concentrations (0.0001 uM to 10 uM) of test compounds were added to individual wells prior to the addition of membranes.

[2] = biological target: T2, Diacylglycerol O-acyltransferase 1 (Mus musculus, UniProt Q9Z2A7); test: In Vitro FlashPlate Assay; settings: pH 7.5; 22 °C
T2 sequence (Q9Z2A7 whole entry): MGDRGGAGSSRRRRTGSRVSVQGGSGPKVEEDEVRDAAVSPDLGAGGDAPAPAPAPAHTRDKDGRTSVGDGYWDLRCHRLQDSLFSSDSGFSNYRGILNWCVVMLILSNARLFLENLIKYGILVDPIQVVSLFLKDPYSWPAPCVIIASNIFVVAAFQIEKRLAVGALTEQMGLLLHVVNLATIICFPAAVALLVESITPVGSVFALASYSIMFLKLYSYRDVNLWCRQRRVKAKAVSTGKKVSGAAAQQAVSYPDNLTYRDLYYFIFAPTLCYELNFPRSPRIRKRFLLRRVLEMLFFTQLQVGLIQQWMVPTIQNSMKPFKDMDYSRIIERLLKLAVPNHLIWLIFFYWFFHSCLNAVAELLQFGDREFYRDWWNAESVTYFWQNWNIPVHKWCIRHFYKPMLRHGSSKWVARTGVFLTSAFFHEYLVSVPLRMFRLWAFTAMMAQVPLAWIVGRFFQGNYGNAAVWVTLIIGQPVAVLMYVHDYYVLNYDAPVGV
Method: as §1

`COc1ccc(NC(=O)Nc2ccc(-c3ccc(C(=O)[C@@H]4CCC[C@H]4C(=O)O)cc3)cc2)cc1` [(1R,2R)-2-{[4-(4-{[(4-methoxyphenyl)carbamoyl]amino}phenyl)phenyl]carbonyl}cyclopentane-1-carboxylic acid] showed an IC50 [1] of 9 nM and an IC50 [2] of 28 nM.
